Measurements: patent US20250213587A1, “ITK INHIBITORS FOR INCREASING TH1 CELL ACTIVITY” (Corvus Pharmaceuticals, Inc., priority 2022, published 2025)
pIC50: −log10 of the molar value.

Tests used:
[1] = test system: human CD4 T cells; test: T cell exhaustion markers; type: cell-based
[2] = test system: S6 phosphorylation; test: pS6 flow cytometry after CD3/28 crosslinking; type: cell-based; details: Homo sapiens, mean of three donors
Description: PBMCs were pelleted (400×g at 4° C. for 5 minutes) and resuspended in RPMI+10% heat-inactivated fetal bovine serum (FBS) at 14.3×10^6 cells/mL; 70 μL (1×10^6 cells) were plated in a 96 well U bottom plate and incubated at 37° C. for 1 hour. […] CD3-biotin and CD28-biotin were prepared together at 10 μg/mL each, which is 10× the final concentration; 10 μL antibodies were added to the cells and incubated at 37° C. for 15 minutes. Avidin was prepared at 500 μg/mL, which is 10× the final concentration; 10 μL avidin were added to the cells and incubated at 37° C. for 5 minutes to induce TCR crosslinking. A total volume of 100 μL cells were transferred to 200 μL warm 2.4% paraformaldehyde (PFA) in deep well blocks. Pipetting was performed using a liquidator 96 to add reagents to the entire plate with uniform timing. Cells were fixed with PFA at 37° C. for 10 minutes. Cells were pelleted (1000× g for 5 minutes), and the plate was aspirated leaving approximately 100 μL residual volume. The plate was then vigorously vortexed for 10 seconds, and 1 mL −20° C. methanol was added to each well. Cells were stored at […] for approximately 1 month. […] Inhibition was measured by construction of a concentration response curve of the Log base 10 transformed values of the molar concentration of inhibitor. […]

[3] = Glutathione reactivity assay; type: physicochemical; details: 37° C.
Description: The reactivity of acrylamides with glutathione was determined by measuring the disappearance of starting material and appearance of the adduct with glutathione in HPLC-MS spectra as a function of time. All the stock solutions and solvents were bubbled with nitrogen and all reactions were run under nitrogen at 37° C. A 250 μL volume of 20 mM test compound in DMSO was mixed with 250 μL of 2.0 mM indoprofen (used as internal standard) in DMSO and 4.5 mL of 11.1 mM glutathione in 100 mM potassium phosphate buffer (pH 7.4). Each reaction contained 1 mM test compound, 0.1 mM indoprofen, and 10 mM glutathione in 100 mM potassium phosphate buffer and 10% DMSO. The reaction mixture was stirred at 37° C. for 5 hours and sampled for HPLC-MS analysis every hour. The reaction product, internal standard and starting materials were separated by liquid chromatography using an Agilent Eclipse XBD-C18 column (4.6×150 mm, 3.5 um) and quantified by UV absorption. The mobile phase consisted of solvent A (water) and solvent B (acetonitrile), employing a gradient of 10% to 95% solvent B over 10 min.

[4] = target: T1, ITK Cys-442 (Homo sapiens, UniProt Q08881); test: Mass spectrometry of chymotryptic digest of inhibited ITK; type: binding; details: LC MS/MS, 5-fold molar excess
T1 construct: The protein construct comprised amino acids 2 to 620 of ITK; purchased Cama Bioscience (so in the source)
Description: ITK was obtained as a glutathione S transferase (GST) fusion protein from Cama Bioscience (Product Number 08 081, Lot 13CBS 0356K). The protein was supplied at 586 μg/mL (5.9 μM ITK) in 50 mM TRIS, 150 mM NaCl, 0.05% Brij35, 1 mM dithiothreitol, and 10% glycerol at pH 7.5. The protein construct comprised amino acids 2 to 620 of ITK and is fused to GST at the N terminus of ITK (ITK GST). To prepare the samples for mass spectral analysis, a 2 μM sample of the ITK GST fusion protein was incubated with a 5-fold molar excess of CPI 818 (10 μM). A control, untreated sample of ITK GST was prepared in parallel. […] After the incubation phase, samples were frozen and stored at −80° C. Mass spectral analysis was conducted in collaboration with the Stanford University mass spectrometry facility. The control, untreated ITK GST fusion protein, and the CPI 818 inhibited sample were subjected to chymotrypsin digestion and then analyzed by liquid chromatography coupled with tandem mass spectrometry (LC MS/MS). […] Ions electrosprayed from this column were detected using an Orbitrap Fusion mass spectrometer (Thermo Scientific, San Jose, CA) operated in a data dependent fashion using both ETD and HCD fragmentation to improve detection efficiency of modified peptides. […] Peptides were constrained to 12 ppm mass accuracy for precursor ions, and 0.4 Da mass accuracies for fragment ions detected in the ion trap. […]

[5] = target: Lck (Homo sapiens, UniProt P06239); test: Human kinome profiling at 1.0 μM, Lck; type: biochemical; details: read-out: percent control, Lck
[6] = test system: bleomycin-induced pulmonary fibrosis; test: Bleomycin-induced mouse pulmonary fibrosis model; type: in vivo; details: 10 and 30 mg/kg QD, day 7-21

Lck, sequence (P06239 whole entry): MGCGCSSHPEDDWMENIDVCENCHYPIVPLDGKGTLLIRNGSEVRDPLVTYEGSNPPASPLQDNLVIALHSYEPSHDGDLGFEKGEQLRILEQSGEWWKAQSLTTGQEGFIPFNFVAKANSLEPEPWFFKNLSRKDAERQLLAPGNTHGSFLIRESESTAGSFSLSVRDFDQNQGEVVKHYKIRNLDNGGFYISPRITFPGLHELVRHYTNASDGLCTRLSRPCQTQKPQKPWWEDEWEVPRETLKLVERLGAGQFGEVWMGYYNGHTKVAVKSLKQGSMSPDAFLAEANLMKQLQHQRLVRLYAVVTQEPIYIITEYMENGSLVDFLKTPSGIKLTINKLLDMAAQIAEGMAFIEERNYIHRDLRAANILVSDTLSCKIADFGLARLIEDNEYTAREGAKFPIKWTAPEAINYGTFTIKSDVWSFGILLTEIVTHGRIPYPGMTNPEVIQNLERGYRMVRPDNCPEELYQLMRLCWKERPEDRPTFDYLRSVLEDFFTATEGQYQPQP
T1 sequence (Q08881 2-620): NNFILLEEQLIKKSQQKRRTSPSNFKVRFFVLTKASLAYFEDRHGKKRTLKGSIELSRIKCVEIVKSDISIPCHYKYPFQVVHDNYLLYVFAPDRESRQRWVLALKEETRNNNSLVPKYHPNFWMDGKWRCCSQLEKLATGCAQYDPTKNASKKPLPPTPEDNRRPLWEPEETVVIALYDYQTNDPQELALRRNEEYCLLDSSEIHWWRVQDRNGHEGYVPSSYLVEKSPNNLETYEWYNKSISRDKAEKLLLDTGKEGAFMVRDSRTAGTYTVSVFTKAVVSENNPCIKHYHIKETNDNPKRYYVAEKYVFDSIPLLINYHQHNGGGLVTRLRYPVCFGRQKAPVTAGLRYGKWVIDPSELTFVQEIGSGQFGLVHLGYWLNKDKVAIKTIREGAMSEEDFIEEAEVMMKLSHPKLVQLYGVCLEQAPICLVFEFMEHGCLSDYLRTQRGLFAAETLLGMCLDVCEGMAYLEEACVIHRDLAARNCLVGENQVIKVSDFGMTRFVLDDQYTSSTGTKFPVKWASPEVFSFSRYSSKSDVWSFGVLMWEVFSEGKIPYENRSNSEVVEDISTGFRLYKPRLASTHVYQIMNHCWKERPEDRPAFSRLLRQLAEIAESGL

C=CC(=O)N1CCCN(C(=O)c2cc(Sc3cnc(NC(=O)C4CC4)s3)c(C)cc2OC)C[C@H]1C [CPI-818]
T cell exhaustion: granzyme B and IFNγ levels [1]: reverses T cell exhaustion | LAG3, TIGIT and PD-1 ([1]; various concentrations): downregulate biomarkers of T cell exhaustion | pIC50 [2]: 7.02 | stability of acrylamide in presence of glutathione ([3]; 3 h): minimal loss | loss in presence of glutathione ([3]; physiological glutathione, 5 h): 4% | covalent modification of ITK peptides [4]: covalently labeling Cys-442 | remaining activity at 1 µM [5]: 89% | BALF leukocytes [6]: reduced | lung weight [6]: reduced
